# Assay results: publication PMC6862323, “Substitution of Arginine 120 in Human D-Amino Acid Oxidase Favors FAD-Binding and Nuclear Mistargeting” (Frontiers in Molecular Biosciences, 2019)
# Where two headings read alike, the source gives them in different places.
# Tests used:
# [1] = molecular target: T1, R120E hDAAO variant (Homo sapiens, UniProt P14920, R120E); assay: FAD and ligand binding by quenching of protein fluorescence, R120E hDAAO
# T1 construct: His-tag (N); made in house; host or cells: E. coli BL21 (DE3) Star
# T1 sequence (P14920 whole entry R120E): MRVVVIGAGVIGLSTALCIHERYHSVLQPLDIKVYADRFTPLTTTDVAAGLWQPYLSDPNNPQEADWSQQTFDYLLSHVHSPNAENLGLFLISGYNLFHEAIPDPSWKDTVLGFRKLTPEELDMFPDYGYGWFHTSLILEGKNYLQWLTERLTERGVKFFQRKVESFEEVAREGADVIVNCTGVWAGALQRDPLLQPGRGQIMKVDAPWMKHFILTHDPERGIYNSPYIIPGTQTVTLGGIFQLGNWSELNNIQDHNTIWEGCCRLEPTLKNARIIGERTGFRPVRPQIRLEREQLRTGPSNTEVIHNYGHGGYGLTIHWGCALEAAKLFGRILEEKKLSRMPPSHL
# Procedure: (§1) Protein fluorescence spectra were recorded between 300 and 400 nm, with excitation at 280 nm using a Jasco FP-750 instrument (excitation slit of 10 nm; emission slit of 5 nm) in 10 mM potassium phosphate, pH 8.0, 1% (v/v) glycerol, 5 mM 2-mercaptoethanol, […]
# [2] = molecular target: T2, R120L hDAAO variant (Homo sapiens, UniProt P14920, R120L); assay: FAD and ligand binding by quenching of protein fluorescence, R120L hDAAO
# T2 construct: His-tag (N); made in house; host or cells: E. coli BL21 (DE3) Star
# T2 sequence (P14920 whole entry R120L): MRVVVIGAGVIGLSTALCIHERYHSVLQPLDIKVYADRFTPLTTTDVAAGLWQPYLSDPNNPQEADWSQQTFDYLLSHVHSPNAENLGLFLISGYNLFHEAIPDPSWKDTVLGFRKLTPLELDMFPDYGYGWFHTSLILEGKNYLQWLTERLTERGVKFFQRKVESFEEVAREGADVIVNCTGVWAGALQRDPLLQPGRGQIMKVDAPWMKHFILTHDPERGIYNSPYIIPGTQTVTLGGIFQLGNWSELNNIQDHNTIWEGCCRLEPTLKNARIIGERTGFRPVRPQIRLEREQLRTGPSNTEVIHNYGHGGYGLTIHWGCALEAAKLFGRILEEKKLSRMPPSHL
# Procedure: as §1
# [3] = molecular target: wild-type hDAAO; details: cited from earlier work
# [4] = test system: wild-type hDAAO; parameters: method as in Molla et al. (2006) and Murtas et al. (2017); details: air saturation, 25°C, pH 8.5, ref Molla et al. (2006) and Murtas et al. (2017), cited from earlier work; for Km: read-out: apparent Km
# [5] = molecular target: T1, R120E hDAAO variant; assay: Apparent kinetic parameters on D-amino acids (oxygen electrode), R120E hDAAO; format: biochemical; details: air saturation, 25°C, pH 8.5, 0.2 mM FAD
# Procedure: (§2) The kinetic parameters were determined on different D-amino acids, employing increasing substrate concentrations (Molla et al., [2000], [2006]). The apparent kinetic parameters were calculated using the initial reaction rate according to a Michaelis–Menten equation using the Kaleidagraph software (Synergy Software, Reading, PA, USA).
# (§3) The apparent kinetic parameters were calculated according to a Michaelis–Menten equation using the initial velocity values determined at increasing D-amino acid concentrations and a fixed O2 concentration (air saturation) at pH 8.5 and 25°C, in the presence of 0.2 mM FAD to avoid apoprotein formation for wild-type hDAAO.
# [6] = molecular target: T2, R120L hDAAO variant; assay: Apparent kinetic parameters on D-amino acids (oxygen electrode), R120L hDAAO; format: biochemical; details: air saturation, 25°C, pH 8.5, 0.2 mM FAD
# Procedure: as §2, §3
# [7] = test system: W209R hDAAO; parameters: method as in Cappelletti et al., 2015; details: compared with wild-type hDAAO; ref Cappelletti et al., 2015; cited from earlier work
# [8] = Standard DAAO activity assay of purified hDAAO variants (oxygen electrode, 28 mM D-alanine); format: biochemical; details: pH 8.5, 25°C
# [9] = test system: U87 glioblastoma cells; assay: Confocal analysis of cellular distribution of EYFP-hDAAO variants in transiently transfected U87 cells; format: cell-based, human
# Procedure: Human U87 glioblastoma cells (ATCC) were cultured in DMEM supplemented with 10% fetal bovine serum, 1 mM sodium pyruvate, 2 mM L-glutamine, 1% non-essential amino acids, 1% penicillin/streptomycin, and 1% amphotericin B (Euroclone), at 37°C in 5% CO2. The cells were transfected either with the pEYFP-hDAAO-C3 construct (for the expression of the wild-type enzyme downstream of the enhanced yellow fluorescent protein, EYFP) (Sacchi et al., [2008], [2011]), the pEYFP-hDAAO(R120L)-C3, or the pEYFP-hDAAO(R120E)-C3 expression vectors. The latter constructs were obtained by mutagenesis using the QuikChange Lightning Site-Directed Mutagenesis Kit (Agilent), and the following primers: 5′-[…]-3′ and 5′-[…]-3′ for the R120E substitution, and 5-[…]-3′ and 5′-[…]-3′ for the R120L substitution.
# For transient transfection, 2 ×10^4 cells were seeded into eight-well chamber slides (Sarstedt). At 24 h after seeding, cells were transfected with 2 μg plasmid DNA using a 4:1 ratio of FuGENE transfection reagent (Promega) to DNA. Then, 12.5 μL of transfection mix was added to 500 μL medium per well. Protein expression levels were monitored by using a fluorescence microscope (Olympus IX51) equipped with a FITC filter and by Western blot analysis using an anti-hDAAO antibody (Davids Biotechnologie) (Sacchi et al., [2008], [2011]).
# At 24, 48, and 72 h after transfection, cells were washed twice with PBS and fixed with ice-cold 4% p-formaldehyde and 4% sucrose for 10 min at room temperature. After fixation, cells were washed twice with PBS and blocked by incubation in PBS supplemented with 0.2% Triton X-100 and 4% horse serum for 30 min at room temperature. Peroxisomes were stained using rabbit polyclonal anti-PMP70 (peroxisomal membrane protein 70, Sigma), diluted 1:500 in PBS, 0.1% Triton X-100, and 4% horse serum overnight at 4°C; they were then washed twice in PBS and 1% horse serum and incubated for 1 h at room temperature (light protected) with goat anti-rabbit Dylight 550 secondary antibodies (Abcam) diluted 1:400 in PBS, 0.1% Triton X-100, and 1.5% horse serum. Cells were then extensively washed in PBS and nuclei were stained with DRAQ5™ (Thermo Scientific) and diluted 1:500 in PBS for 10 min at room temperature in the dark. Cells were washed three times with PBS and stored in PBS at 4°C until imaging.
# Immunostained cells were imaged using an inverted laser scanning confocal microscope (TCS SP5, Leica Microsystems), equipped with a 63.0 ×1.25 NA plan apochromatic oil immersion objective. Confocal image stacks were acquired using the Leica TCS software with a sequential mode to avoid interference between each channel and without saturating any pixel. Cells in 10–15 non-magnified optical fields were analyzed for each condition (i.e., different EYFP-hDAAO expression constructs at different times after transfection). The fluorescence signal corresponding to the overexpressed EYFP-hDAAO variants was monitored by excitation at 514 nm (yellow channel); the peroxisomal and nuclear cellular compartments were imaged by excitation at 546 nm (red channel) and 647 nm (blue channel), respectively.
# U87 glioblastoma cells were transiently transfected with a pEYFP-hDAAO-C3 plasmid encoding for EYFP-hDAAO chimeric proteins harboring R, E, or L at position 120 of the flavoenzyme. […] A similar amount of transfected cells (expressing EYFP-hDAAO protein) was obtained for all three constructs (Table 4). The percentage of cells showing a cytosolic, peroxisomal, and nuclear localization of the flavoenzyme was determined by comparing the yellow fluorescence signal of EYFP-hDAAO variants with those of the markers PMP-70 (for peroxisomes) and DRAQ5™ dye (for nuclei, Figure 5). The amount of cytosolic wild-type EYFP-hDAAO decreased with time after transfection (28% of the signal is cytosolic at 72 h vs. 94% at 24 h), as did the amount of nuclear signal (Table 4 and Figure 6). […]
# [10] = read-out: Benzoate Kd, first saturation phase
# [11] = read-out: Benzoate Kd, second saturation phase
# [12] = apoprotein, no benzoate, read-out: FAD Kd, free form, first saturation phase
# [13] = apoprotein, no benzoate, read-out: FAD Kd, free form, second saturation phase
# [14] = in presence of 70 μM benzoate, read-out: FAD Kd, benzoate complex, first saturation phase
# [15] = in presence of 70 μM benzoate, read-out: FAD Kd, benzoate complex, second saturation phase
molecule,measurement,setting,value
"O=C(O)c1ccccc1 [Benzoate, benzoate]",Kd,[1]; [10],0.16 ± 0.01 µM
same,Kd,[1]; [11],7980 µM
same,Kd,[1]; read-out: Kd for the second phase of binding,~8000 µM
same,Kd,[2]; [10],0.27 ± 0.12 µM
same,Kd,[2]; [11],6200 µM
same,Kd,"[3]; ref Murtas et al. (2017), read-out: Benzoate Kd, first saturation phase",0.33 ± 0.04 µM
same,Kd,"[3]; ref Murtas et al. (2017), read-out: Benzoate Kd, second saturation phase",2590 µM
same,Kd,"[3]; ref Murtas et al., 2017, read-out: Kd for the second phase of binding",2600 µM
"C[C@@H](N)C(=O)O [D-Ala, D-alanine]",apparent kcat,[4],5.2 ± 0.1 s⁻¹
same,Km,[4],1300 ± 200 µM
"N[C@H](CS)C(=O)O [D-Cys, D-cysteine]",Km,[5],600 ± 100 µM
same,apparent kcat,[5],9.9 ± 0.5 s⁻¹
same,Km,[6],700 ± 100 µM
same,apparent kcat,[6],15.6 ± 0.7 s⁻¹
same,apparent kcat,[4],8.6 ± 0.2 s⁻¹
same,Km,[4],600 ± 100 µM
"N[C@H](CO)C(=O)O [D-Ser, D-serine]",Km,[5],17600 ± 3500 µM
same,apparent kcat,[5],8.5 ± 0.4 s⁻¹
same,Km,[6],26700 ± 4500 µM
same,apparent kcat,[6],11.3 ± 0.4 s⁻¹
same,apparent kcat,[4],3.0 ± 0.1 s⁻¹
same,Km,[4],7500 ± 500 µM
Cc1cc2nc3c(=O)[nH]c(=O)nc-3n(C[C@H](O)[C@H](O)[C@H](O)COP(=O)(O)OP(=O)(O)OC[C@H]3O[C@@H](n4cnc5c(N)ncnc54)[C@H](O)[C@@H]3O)c2cc1C [FAD],"amplitude of fluorescence change, FAD binding, free form, first phase","[1]; apoprotein, no benzoate",65%
same,"amplitude of fluorescence change, FAD binding, free form, second phase","[1]; apoprotein, no benzoate",35%
same,Kd,[1]; [12],0.05 ± 0.01 µM
same,Kd,[1]; [13],32 ± 3 µM
same,"amplitude of fluorescence change, FAD binding, benzoate complex, first phase",[1]; in presence of 70 μM benzoate,65%
same,"amplitude of fluorescence change, FAD binding, benzoate complex, second phase",[1]; in presence of 70 μM benzoate,35%
same,Kd,[1]; [14],0.61 ± 0.08 µM
same,Kd,[1]; [15],≥ 30 µM
same,"amplitude of fluorescence change, FAD binding, free form, first phase","[2]; apoprotein, no benzoate",60%
same,"amplitude of fluorescence change, FAD binding, free form, second phase","[2]; apoprotein, no benzoate",40%
same,Kd,[2]; [12],0.05 ± 0.01 µM
same,Kd,[2]; [13],23.1 ± 1 µM
same,"amplitude of fluorescence change, FAD binding, benzoate complex, first phase",[2]; in presence of 70 μM benzoate,75%
same,"amplitude of fluorescence change, FAD binding, benzoate complex, second phase",[2]; in presence of 70 μM benzoate,25%
same,Kd,[2]; [14],0.07 ± 0.01 µM
same,Kd,[2]; [15],≥ 20 µM
same,Kd,"[3]; apoprotein, no benzoate, ref Murtas et al. (2017), read-out: FAD Kd, free form, first saturation phase",0.43 ± 0.02 µM
same,Kd,"[3]; apoprotein, no benzoate, ref Murtas et al. (2017), read-out: FAD Kd, free form, second saturation phase",≥ 30 µM
same,Kd,"[3]; in presence of 70 μM benzoate, monophasic, ref Murtas et al. (2017), read-out: FAD Kd, benzoate complex",0.48 ± 0.02 µM
same,tighter FAD-binding (fold),[7],4 fold
R120E: hDAAO variant with Arg120 substituted by glutamate (His-tagged from E. coli; EYFP-tagged in U87 cells),Specific activity,[8],21.0 U/mg protein
same,"hDAAO cellular distribution: A, large cytosolic aggregates detected",[9]; 24 h after transfection,29.7 % of transfected cells
same,"hDAAO cellular distribution: C, cytosol",[9]; 24 h after transfection,86.7 % of transfected cells
same,"hDAAO cellular distribution: C/P, mixed, cytosol and peroxisomes",[9]; 24 h after transfection,7.8 % of transfected cells
same,"hDAAO cellular distribution: N, nucleus",[9]; 24 h after transfection,36.7 % of transfected cells
same,"hDAAO cellular distribution: P, peroxisomes",[9]; 24 h after transfection,6.3 % of transfected cells
same,"hDAAO cellular distribution: A, large cytosolic aggregates detected",[9]; 48 h after transfection,31.3 % of transfected cells
same,"hDAAO cellular distribution: C, cytosol",[9]; 48 h after transfection,56.7 % of transfected cells
same,"hDAAO cellular distribution: C/P, mixed, cytosol and peroxisomes",[9]; 48 h after transfection,14.9 % of transfected cells
same,"hDAAO cellular distribution: N, nucleus",[9]; 48 h after transfection,27.6 % of transfected cells
same,"hDAAO cellular distribution: P, peroxisomes",[9]; 48 h after transfection,28.4 % of transfected cells
same,"hDAAO cellular distribution: A, large cytosolic aggregates detected",[9]; 72 h after transfection,18.2 % of transfected cells
same,"hDAAO cellular distribution: C, cytosol",[9]; 72 h after transfection,40.3 % of transfected cells
same,"hDAAO cellular distribution: C/P, mixed, cytosol and peroxisomes",[9]; 72 h after transfection,18.2 % of transfected cells
same,"hDAAO cellular distribution: N, nucleus",[9]; 72 h after transfection,24.0 % of transfected cells
same,"hDAAO cellular distribution: P, peroxisomes",[9]; 72 h after transfection,41.6 % of transfected cells
R120L: hDAAO variant with Arg120 substituted by leucine (His-tagged from E. coli; EYFP-tagged in U87 cells),Specific activity,[8],17.6 U/mg protein
same,"hDAAO cellular distribution: A, large cytosolic aggregates detected",[9]; 24 h after transfection,41.5 % of transfected cells
same,"hDAAO cellular distribution: C, cytosol",[9]; 24 h after transfection,93.1 % of transfected cells
same,"hDAAO cellular distribution: C/P, mixed, cytosol and peroxisomes",[9]; 24 h after transfection,3.8 % of transfected cells
same,"hDAAO cellular distribution: N, nucleus",[9]; 24 h after transfection,20.8 % of transfected cells
same,"hDAAO cellular distribution: P, peroxisomes",[9]; 24 h after transfection,3.1 % of transfected cells
same,"hDAAO cellular distribution: A, large cytosolic aggregates detected",[9]; 48 h after transfection,22.6 % of transfected cells
same,"hDAAO cellular distribution: C, cytosol",[9]; 48 h after transfection,59.7 % of transfected cells
same,"hDAAO cellular distribution: C/P, mixed, cytosol and peroxisomes",[9]; 48 h after transfection,21.0 % of transfected cells
same,"hDAAO cellular distribution: N, nucleus",[9]; 48 h after transfection,20.2 % of transfected cells
same,"hDAAO cellular distribution: P, peroxisomes",[9]; 48 h after transfection,19.4 % of transfected cells
same,"hDAAO cellular distribution: A, large cytosolic aggregates detected",[9]; 72 h after transfection,35.6 % of transfected cells
same,"hDAAO cellular distribution: C, cytosol",[9]; 72 h after transfection,45.5 % of transfected cells
same,"hDAAO cellular distribution: C/P, mixed, cytosol and peroxisomes",[9]; 72 h after transfection,21.2 % of transfected cells
same,"hDAAO cellular distribution: N, nucleus",[9]; 72 h after transfection,13.1 % of transfected cells
same,"hDAAO cellular distribution: P, peroxisomes",[9]; 72 h after transfection,34.3 % of transfected cells
